Laboratory results published in ChEMBL document CHEMBL1629673, “Role of known molecular markers of resistance in the antimalarial potency of piperaquine and dihydroartemisinin in vitro” (Antimicrob Agents Chemother, 2009).

How the values were obtained:
Plasmodium falciparum [1] = test: Antiplasmodial activity against chloroquine-resistant Plasmodium falciparum K1 infected in erythrocytes assessed as [3H]hypoxanthine incorporation in presence of piperaquine; type: functional
Plasmodium falciparum [2] = test: Antiplasmodial activity against chloroquine-resistant Plasmodium falciparum TM6 infected in erythrocytes assessed as [3H]hypoxanthine incorporation in presence of piperaquine; type: functional
Plasmodium falciparum [3] = test: Antiplasmodial activity against chloroquine-resistant Plasmodium falciparum 7G8 infected in erythrocytes assessed as [3H]hypoxanthine incorporation in presence of piperaquine; type: functional
Plasmodium falciparum [4] = test: Antiplasmodial activity against chloroquine-sensitive Plasmodium falciparum 3D7 infected in erythrocytes assessed as [3H]hypoxanthine incorporation in presence of piperaquine; type: functional
Plasmodium falciparum [5] = test: Antiplasmodial activity against chloroquine-resistant Plasmodium falciparum C6harboring 7G8 pfcrt allele infected in erythrocytes assessed as [3H]hypoxanthine incorporation in presence of piperaquine; type: functional, C6
Plasmodium falciparum [6] = test: Antiplasmodial activity against chloroquine-sensitive Plasmodium falciparum D10 harboring 7G8 pfcrt allele infected in erythrocytes assessed as [3H]hypoxanthine incorporation in presence of piperaquine; type: functional
Plasmodium falciparum [7] = test: Antiplasmodial activity against chloroquine-resistant Plasmodium falciparum 7G8 harboring parental pfcrt allele infected in erythrocytes assessed as [3H]hypoxanthine incorporation in presence of piperaquine; type: functional
Plasmodium falciparum [8] = test: Antiplasmodial activity against chloroquine-resistant Plasmodium falciparum 7G8 harboring D10 pfcrt allele infected in erythrocytes assessed as [3H]hypoxanthine incorporation in presence of piperaquine; type: functional
Plasmodium falciparum [9] = test: microbe, parasite or virus in culture; conditions: K1, 3 h
Plasmodium falciparum [10] = test: microbe, parasite or virus in culture; conditions: TM6, 3 h
Plasmodium falciparum [11] = test: microbe, parasite or virus in culture; conditions: 7G8, 3 h
Plasmodium falciparum [12] = test: microbe, parasite or virus in culture; conditions: 3D7, 3 h
Plasmodium falciparum [13] = test: microbe, parasite or virus in culture; conditions: C2, 3 h
Plasmodium falciparum [14] = test: microbe, parasite or virus in culture; conditions: C3, 3 h
Plasmodium falciparum [15] = test: microbe, parasite or virus in culture; conditions: C6, 3 h
Plasmodium falciparum [16] = test: microbe, parasite or virus in culture; conditions: D10, 3 h
Plasmodium falciparum [17] = test: microbe, parasite or virus in culture; conditions: D10, 3 h; remark: listed apart in the source
Plasmodium falciparum [18] = test: microbe, parasite or virus in culture; conditions: 7G8, 3 h; remark: listed apart in the source
Plasmodium falciparum [19] = test: microbe, parasite or virus in culture; conditions: 7G8, 3 h; remark: listed apart in the source
Plasmodium falciparum [20] = test: Antiplasmodial activity against chloroquine-resistant Plasmodium falciparum K1 infected in erythrocytes assessed as [3H]hypoxanthine incorporation in presence of dihydroartimisinin; type: functional
Plasmodium falciparum [21] = test: Antiplasmodial activity against chloroquine-resistant Plasmodium falciparum TM6 infected in erythrocytes assessed as [3H]hypoxanthine incorporation in presence of dihydroartimisinin; type: functional
Plasmodium falciparum [22] = test: Antiplasmodial activity against chloroquine-resistant Plasmodium falciparum 7G8 infected in erythrocytes assessed as [3H]hypoxanthine incorporation in presence of dihydroartimisinin; type: functional
Plasmodium falciparum [23] = test: Antiplasmodial activity against chloroquine-sensitive Plasmodium falciparum 3D7 infected in erythrocytes assessed as [3H]hypoxanthine incorporation in presence of dihydroartimisinin; type: functional
Plasmodium falciparum [24] = test: Antiplasmodial activity against chloroquine-sensitive Plasmodium falciparum C2 infected in erythrocytes assessed as [3H]hypoxanthine incorporation in presence of dihydroartimisinin; type: functional
Plasmodium falciparum [25] = test: Antiplasmodial activity against chloroquine-resistant Plasmodium falciparum C3 harboring Dd2 pfcrt allele infected in erythrocytes assessed as [3H]hypoxanthine incorporation in presence of dihydroartimisinin; type: functional
Plasmodium falciparum [26] = test: Antiplasmodial activity against chloroquine-resistant Plasmodium falciparum C6harboring 7G8 pfcrt allele infected in erythrocytes assessed as [3H]hypoxanthine incorporation in presence of dihydroartimisinin; type: functional, C6
Plasmodium falciparum [27] = test: Antiplasmodial activity against chloroquine-sensitive Plasmodium falciparum D10 infected in erythrocytes assessed as [3H]hypoxanthine incorporation in presence of dihydroartimisinin; type: functional
Plasmodium falciparum [28] = test: Antiplasmodial activity against chloroquine-sensitive Plasmodium falciparum D10 harboring 7G8 pfcrt allele infected in erythrocytes assessed as [3H]hypoxanthine incorporation in presence of dihydroartimisinin; type: functional
Plasmodium falciparum [29] = test: Antiplasmodial activity against chloroquine-resistant Plasmodium falciparum 7G8 harboring parental pfcrt allele infected in erythrocytes assessed as [3H]hypoxanthine incorporation in presence of dihydroartimisinin; type: functional
Plasmodium falciparum [30] = test: Antiplasmodial activity against chloroquine-resistant Plasmodium falciparum 7G8 harboring D10 pfcrt allele infected in erythrocytes assessed as [3H]hypoxanthine incorporation in presence of dihydroartimisinin; type: functional
Plasmodium falciparum [31] = test: Selectivity ratio of IC50 for chloroquine-resistant Plasmodium falciparum C3 harboring Dd2 pfcrt allele to IC50 for chloroquine-sensitive Plasmodium falciparum C2; type: functional

With C[C@H]1[C@@H](O)O[C@@H]2O[C@@]3(C)CC[C@H]4[C@H](C)CC[C@@H]1[C@@]24OO3 [ARTENIMOL] the “fractional inhibitory concentration index (FICI)” value (Plasmodium falciparum [1]) was 1.27, the “fractional inhibitory concentration index (FICI)” value (Plasmodium falciparum [2]) was 1.25 and the “fractional inhibitory concentration index (FICI)” value (Plasmodium falciparum [3]) was 2.86. For the same compound, the “fractional inhibitory concentration index (FICI)” value (Plasmodium falciparum [4]) was 2.4, the “fractional inhibitory concentration index (FICI)” value (Plasmodium falciparum [5]) was 2.51 and the “fractional inhibitory concentration index (FICI)” value (Plasmodium falciparum [6]) was 1.34. The “fractional inhibitory concentration index (FICI)” value (Plasmodium falciparum [7]) was 0.8, the “fractional inhibitory concentration index (FICI)” value (Plasmodium falciparum [8]) was 1.34 and the IC50 (Plasmodium falciparum [9]) was 1 nM. The IC50 (Plasmodium falciparum [10]) was 1 nM, the IC50 (Plasmodium falciparum [11]) was 1.3 nM and the IC50 (Plasmodium falciparum [12]) was 0.6 nM. For the same compound, the IC50 (Plasmodium falciparum [13]) was 0.8 nM, the IC50 (Plasmodium falciparum [14]) was 1 nM and the IC50 (Plasmodium falciparum [15]) was 0.3 nM. For the same compound, the IC50 (Plasmodium falciparum [16]) was 0.7 nM, the IC50 (Plasmodium falciparum [17]) was 0.7 nM and the IC50 (Plasmodium falciparum [18]) was 0.6 nM. For the same compound, the IC50 (Plasmodium falciparum [19]) was 1.3 nM.
With Clc1ccc2c(N3CCN(CCCN4CCN(c5ccnc6cc(Cl)ccc56)CC4)CC3)ccnc2c1 [PIPERAQUINE] the “fractional inhibitory concentration index (FICI)” value (Plasmodium falciparum [20]) was 1.27, the “fractional inhibitory concentration index (FICI)” value (Plasmodium falciparum [21]) was 1.25 and the “fractional inhibitory concentration index (FICI)” value (Plasmodium falciparum [22]) was 2.86. The “fractional inhibitory concentration index (FICI)” value (Plasmodium falciparum [23]) was 2.4, the “fractional inhibitory concentration index (FICI)” value (Plasmodium falciparum [24]) was 1.59 and the “fractional inhibitory concentration index (FICI)” value (Plasmodium falciparum [25]) was 1.7. The “fractional inhibitory concentration index (FICI)” value (Plasmodium falciparum [26]) was 2.51, the “fractional inhibitory concentration index (FICI)” value (Plasmodium falciparum [27]) was 1.48 and the “fractional inhibitory concentration index (FICI)” value (Plasmodium falciparum [28]) was 1.34. The “fractional inhibitory concentration index (FICI)” value (Plasmodium falciparum [29]) was 0.8, the “fractional inhibitory concentration index (FICI)” value (Plasmodium falciparum [30]) was 1.34 and the “fold change (FC)” value (Plasmodium falciparum [31]) was 3. It also gave an IC50 (Plasmodium falciparum [9]) of 13.4 nM, an IC50 (Plasmodium falciparum [10]) of 15.8 nM and an IC50 (Plasmodium falciparum [11]) of 11.2 nM. The IC50 (Plasmodium falciparum [12]) was 3.4 nM, the IC50 (Plasmodium falciparum [13]) was 3.9 nM and the IC50 (Plasmodium falciparum [14]) was 11.5 nM. The IC50 (Plasmodium falciparum [15]) was 6.6 nM, the IC50 (Plasmodium falciparum [16]) was 8.1 nM and the IC50 (Plasmodium falciparum [18]) was 9.1 nM. The IC50 (Plasmodium falciparum [19]) was 12 nM.
